Measurements as given in patent US6949350B1, “Chemosensitivity determination using phosphatidylserine” (Evotec Analytical Systems GmbH, priority 1999, dated 2005).
Starred links: 1 amine or outer side, 2 acyl side, 3 side chain; linkers in the order of their positions; H or OH if unused. Positions of bridges follow the written chain, without caps; N, C: chain ends. Non-standard residues stand in square brackets, D forms with d. Residues, ends and D or L forms follow the SMILES beside them. Chains are numbered I, II in the order given. Actinocin(9to1) = Cc1c2oc3c(C)ccc(C(=O)[*:1])c3nc-2c(C(=O)[*:2])c(N)c1=O; NMeV = CN[C@H](C(=O)O)C(C)C; Sar = CNCC(=O)O

Legend:
Jurkat P40 cells = experiment: time-resolved apoptosis detection with fluorescence-labeled annexin V by fluorescence microscopy; type: cell-based; details: 1 μg/ml
Experimental: 100,000 Jurkat P40 cells were simultaneously mixed with 1 μg/ml actinomycin D in the presence of 2 mM CaCl2 and fluorescence-labeled annexin V and incubated at 37° C. in 5% CO2 over a period of up to 24 h. After 4, 6, 8, 10 and 24 h, an aliquot was withdrawn, applied to a glass slide, fixed and analyzed by fluorescence microscopy. […] When the time elapsed was extended and the cell destruction more advanced, there would be a time when fluorescent cell debris would no longer be visible. It was shown that apoptosis in a solution can be followed in a time-resolved manner by recording images at different times. The reaction mix was prepared at the beginning, and subsequently, the increasing apoptosis was only analyzed by means of imaging methods.

[1] = marker which binds phosphatidylserine; binding depends on calcium cations; cited from earlier work

Row | Molecule | degree of apoptosis (number of annexin V stained cells in the observation field) (Jurkat P40 cells; 100,000 Jurkat P40 cells, 2 mM CaCl2, 37° C., 5% CO2, aliquots after 4, 6, 8, 10 and 24 h) | secondary necrosis (cell fragments) (Jurkat P40 cells; Jurkat P40 cells, after 24 h) | Kd [1]
1 | Cc1c2oc3c(C)ccc(C(=O)N[C@@H]4C(=O)N[C@H](C(C)C)C(=O)N5CCC[C@H]5C(=O)N(C)CC(=O)N(C)[C@@H](C(C)C)C(=O)O[C@@H]4C)c3nc-2c(C(=O)N[C@@H]2C(=O)N[C@H](C(C)C)C(=O)N3CCC[C@H]3C(=O)N(C)CC(=O)N(C)[C@@H](C(C)C)C(=O)O[C@@H]2C)c(N)c1=O [actinomycin D] (I: T[dV]P[Sar][NMeV] / II: T[dV]P[Sar][NMeV]; ester I:1-I:C, II:1-II:C; linker I:N-II:N via Actinocin(9to1)) | the degree of apoptosis increases | smaller cell fragments become visible which indicate secondary necrosis | –
2 | annexin V: marker which binds phosphatidylserine | – | – | 0.5 nM
